Test results taken from patent publication US6461997B1, “Triazole sulfones having herbicidal activity” (Monsanto Technology LLC, priority 1999, dated 2002).

Legend:
ABUTH (velvetleaf) = assay: Pre-emergence herbicidal activity, warm season; format: in vivo, Abutilon theophrasti; conditions: for Pre-emergence activity (GR80) ABUTH: GR80 = lowest tested rate (300, 100, 30, 10 g/ha) with 80% or greater inhibition, approx. 14 days after treating, 30/21° C.
How it was run: (§1)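 Seeds sown in sterilised fertilised topsoil received surface-applied compound in 50:50 acetone/water, typically at 300, 100, 30 and 10 g/ha, then greenhouse-grown at 30/21° C (warm-season species) or 18/13° C (cool-season species). Percent inhibition versus untreated plants was scored at about 14 days, giving GR80; an asterisk marks activity short of 80% at the top rate.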

DATST (jimsonweed) = assay: Pre-emergence herbicidal activity, warm season; format: in vivo, Datura stramonium; conditions: for Pre-emergence activity (GR80) DATST: GR80 = lowest tested rate (300, 100, 30, 10 g/ha) with 80% or greater inhibition, approx. 14 days after treating, 30/21° C.
How it was run: as §1

CONAR (field bindweed) [1] = assay: Pre-emergence herbicidal activity, warm season; format: in vivo, Convolvulus arvensis; conditions: GR80 = lowest tested rate (300, 100, 30, 10 g/ha) with 80% or greater inhibition; approx. 14 days after treating; 30/21° C.
How it was run: as §1

[2] = test system: PANMI (wild proso millet); assay: Pre-emergence herbicidal activity, warm season; format: in vivo, Panicum miliaceum; conditions: for Pre-emergence activity (GR80) PANMI: GR80 = lowest tested rate (300, 100, 30, 10 g/ha) with 80% or greater inhibition, approx. 14 days after treating, 30/21° C.
How it was run: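 Herbicidal efficacy was judged visually as percent inhibition compared with untreated plants some 14 days after treatment, giving GR80 over doses of 10 to 300 g/ha. Proso millet and crabgrass grew at 30/21 °C; blackgrass and wild buckwheat grew at 18/13 °C.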

KCHSC (kochia) [3] = assay: Pre-emergence herbicidal activity, cool season; format: in vivo, Kochia scoparia; conditions: lowest tested rate with 80% or greater inhibition; rates 300, 100, 30, 10 g/ha; about 14 days
Description: Tables 5 to 8 summarize results of tests conducted as described below to determine the pre-emergence herbicidal activity, in the form of a GR80 value, of illustrative compounds of this invention. […] Compounds of the invention were typically applied at rates of 300, 100, 30, and 10 g/ha. Where herbicidal activity was evident but 80% inhibition was not achieved at the highest rate tested, an asterisk (*) is shown in the following tables.
The pre-emergence tests were conducted by the following procedure. Topsoil was sieved to pass through a 1.27 cm screen. Fertilizer was added to the topsoil and the mixture was then sterilized by heating. The topsoil mixture was placed in a pot and compacted to a depth of 1.0 to 1.25 cm from the top of the pot. Seeds of each of several monocotyledonous and dicotyledonous annual plant species were placed on top of the soil. Additional soil was subsequently placed over the seeds to level-fill the pot. A known amount of each test compound dissolved or suspended in an appropriate organic solvent was diluted with a 50:50 mix of acetone and water and applied to the surface of the soil. After treatment the plants were placed in a greenhouse where they received 0.64 cm of overhead irrigation. All subsequent watering consisted of a light overhead mist and/or subirrigation as needed for germination and growth. Tables 5 and 6 below relate to warm season plant species which were placed after pre-emergence treatment in a greenhouse with a 30/21° C. day/night temperature regime. Tables 7 and 8 below relates to cool season plant species placed after pre-emergence treatment in a greenhouse or growth chamber with an 18/13° C. day/night temperature regime.
(§2) Approximately 14 days after planting and treating, the plants were observed and herbicidal efficacy recorded as percent inhibition by comparison with untreated plants.
The plant species usually regarded as weeds which were utilized in the tests are identified in the tables below according to the following legend, in which “d” indicates a dicotyledonous species and “m” a monocotyledonous species. All monocotyledonous species included in the tests herein are grasses.

LOLMG (annual ryegrass) = assay: Pre-emergence herbicidal activity, cool season; format: in vivo, Lolium multiflorum; conditions: GR80 = lowest tested rate (300, 100, 30, 10 g/ha) with 80% or greater inhibition; approx. 14 days after treating; 18/13° C.
How it was run: as §1

BROTE (downy brome) = assay: Pre-emergence herbicidal activity, cool season; format: in vivo, Bromus tectorum; conditions: GR80 = lowest tested rate (300, 100, 30, 10 g/ha) with 80% or greater inhibition; approx. 14 days after treating; 18/13° C.
How it was run: as §1

AVEFA (wild oat) = assay: Pre-emergence herbicidal activity, cool season; format: in vivo, Avena fatua; conditions: GR80 = lowest tested rate (300, 100, 30, 10 g/ha) with 80% or greater inhibition; approx. 14 days after treating; 18/13° C.
How it was run: as §1

[4] = test system: AGRRE (quackgrass (seedling)); assay: Pre-emergence herbicidal activity, cool season; format: in vivo, Elymus repens; conditions: GR80 = lowest tested rate (300, 100, 30, 10 g/ha) with 80% or greater inhibition; approx. 14 days after treating; 18/13° C.
How it was run: as §1

CONAR (field bindweed) [5] = assay: Pre-plant incorporated (PPI) herbicidal activity, warm season; format: in vivo, Convolvulus arvensis; conditions: GR80 = lowest tested rate with 80% or greater inhibition, approx. 14 days after treating, 30/21° C.
Description: (§3) In another set of tests, the pre-plant incorporated (PPI) activity of compounds of this invention was evaluated on the same species as for the pre-emergence tests described above. In the PPI tests the following procedure, designed to simulate PPI application, was used.
(§4) A pre-prepared topsoil mixture (described above) was placed in a pot and compacted to a depth of 1.0 to 1.25 cm from the top of the pot. Seeds of each of several monocotyledonous and dicotyledonous annual plant species were placed on top of the soil. A sufficient quantity of soil to cover the seeds and level fill the pot was weighed into an open container. A known amount of the test compound was dissolved or suspended in an organic solvent and applied by spraying to this cover soil. The cover soil was thoroughly mixed to distribute the test compound throughout the cover soil, and was then applied as a cover layer over the seeds. Untreated soil was used as a cover layer for control pots. After treatment the plants were placed in a greenhouse where they received 0.64 cm of overhead irrigation. All subsequent watering consisted of a light overhead mist and/or subirrigation as needed for germination and growth. Tables 9 and 10 below relate to warm season plant species which were placed after pre-emergence treatment in a greenhouse with a 30/21° C. day/night temperature regime. Tables 11 and 12 below relates to cool season plant species placed after pre-emergence treatment in a greenhouse or growth chamber with an 18/13° C. day/night temperature regime. Only the compounds of Examples 1, 6, 8, 11, 13 and 15-20 were included in PPI tests.
as §2

POROL (common purslane) = assay: as above; format: in vivo, Portulaca oleracea; conditions: GR80 = lowest tested rate with 80% or greater inhibition, approx. 14 days after treating, 30/21° C.
Description: as §3, §4, §2

[6] = test system: CIRAR (canada thistle (seedling)); assay: as above; format: in vivo, Cirsium arvense; conditions: GR80 = lowest tested rate with 80% or greater inhibition, approx. 14 days after treating, 30/21° C.
Description: as §3, §4, §2

KCHSC (kochia) [7] = assay: Pre-plant incorporated (PPI) herbicidal activity, cool season; format: in vivo, Kochia scoparia; conditions: for PPI activity GR80, KCHSC: pre-plant incorporated, lowest tested rate with 80% or greater inhibition, about 14 days; for Percent inhibition KCHSC: weed, PPI application
Description: as §3, §4, §2

[8] = test system: IPOSS (annual morningglory); assay: Pre-plant incorporated (PPI) herbicidal activity, warm season; format: in vivo, Ipomoea spp.; conditions: Ipomoea, PPI application, read-out: Percent inhibition IPOSS
Description: as §3, §4, §2

barley (HORVX) = assay: Selectivity test, PPI, cool season crop; format: in vivo, Hordeunm vulgare; conditions: PPI application; for inhibition at 30 g/ha / inhibition at 100 g/ha / inhibition at 300 g/ha / inhibition at 900 g/ha: Hordeum vulgare, read-out: Percent inhibition HORVX
Description: as §4, §2
Additional pre-emergence and PPI tests were conducted by the procedures described above, on warm and cool season weed species in the presence of crop species, to assess herbicidal selectivity. Crop species included in warm season tests were corn (Zea mays, ZEAMX), rice (Oryza sativa, ORYSA) and soybean (Glycine max, GLYMX). Crop species included in cool season tests were wheat (Triticum aestivum, TRZAW), barley (Hordeunm vulgare, HORVX) and oilseed rape (Brassica napus, BRSNS).
Tables 15 and 16 relate to pre-emergence and PPI tests respectively on warm season species. Table 17 relates to pre-emergence tests on cool season species.

Compound	Pre-emergence activity (GR80) ABUTH (ABUTH (velvetleaf))	Pre-emergence activity (GR80) DATST (DATST (jimsonweed))	Pre-emergence activity (GR80) CONAR (CONAR (field bindweed) [1])	Pre-emergence activity (GR80) PANMI [2]	Pre-emergence activity GR80, KCHSC (KCHSC (kochia) [3])	Pre-emergence activity (GR80) LOLMG (LOLMG (annual ryegrass))	Pre-emergence activity (GR80) BROTE (BROTE (downy brome))	Pre-emergence activity (GR80) AVEFA (AVEFA (wild oat))	Pre-emergence activity (GR80) AGRRE [4]	PPI activity (GR80) CONAR (CONAR (field bindweed) [5])	PPI activity (GR80) POROL (POROL (common purslane))	PPI activity (GR80) CIRAR [6]	PPI activity GR80, KCHSC (KCHSC (kochia) [7])	inhibition at 300 g/ha [8]	inhibition at 900 g/ha [8]	inhibition at 30 g/ha (barley (HORVX); 30 g/ha)	inhibition at 100 g/ha (barley (HORVX); 100 g/ha)	inhibition at 300 g/ha (barley (HORVX); 300 g/ha)	inhibition at 900 g/ha (barley (HORVX); 900 g/ha)	also measured
CCN(CC)C(=O)n1cnc(S(=O)(=O)C(F)(F)Br)n1 [Example 1, 3-(bromodifluoromethylsulfonyl)-1-(N,N-diethylcarbamoyl)-1,2,4-triazole]	300 g/ha	300 g/ha	300 g/ha	100 g/ha	300 g/ha	100 g/ha	300 g/ha	100 g/ha	300 g/ha	100 g/ha	30 g/ha	100 g/ha	100 g/ha	60%	80%	0%	10%	30%	50%	inhibition at 10 g/ha (ABUTH (velvetleaf); Abutilon theophrasti, pre-emergence application, 10 g/ha, read-out: Percent inhibition, weed ABUTH): 0%; inhibition at 30 g/ha (ABUTH (velvetleaf); Abutilon theophrasti, pre-emergence application, 30 g/ha, read-out: Percent inhibition, weed ABUTH): 0%; inhibition at 300 g/ha (ABUTH (velvetleaf); Abutilon theophrasti, pre-emergence application, 300 g/ha, read-out: Percent inhibition, weed ABUTH): 0%; inhibition at 900 g/ha (ABUTH (velvetleaf); Abutilon theophrasti, pre-emergence application, 900 g/ha, read-out: Percent inhibition, weed ABUTH): 0%; inhibition at 10 g/ha (DATST (jimsonweed); Datura stramonium, pre-emergence application, 10 g/ha, read-out: Percent inhibition, weed DATST): 0%; inhibition at 30 g/ha (DATST (jimsonweed); Datura stramonium, pre-emergence application, 30 g/ha, read-out: Percent inhibition, weed DATST): 0%; inhibition at 100 g/ha (DATST (jimsonweed); Datura stramonium, pre-emergence application, 100 g/ha, read-out: Percent inhibition, weed DATST): 0%; inhibition at 300 g/ha (DATST (jimsonweed); Datura stramonium, pre-emergence application, 300 g/ha, read-out: Percent inhibition, weed DATST): 0%; inhibition at 900 g/ha (DATST (jimsonweed); Datura stramonium, pre-emergence application, 900 g/ha, read-out: Percent inhibition, weed DATST): 20%; inhibition at 10 g/ha ([2]; Panicum miliaceum, pre-emergence application, 10 g/ha, read-out: Percent inhibition, weed PANMI): 0%; inhibition at 30 g/ha ([2]; Panicum miliaceum, pre-emergence application, 30 g/ha, read-out: Percent inhibition, weed PANMI): 0%; inhibition at 100 g/ha ([2]; Panicum miliaceum, pre-emergence application, 100 g/ha, read-out: Percent inhibition, weed PANMI): 30%; inhibition at 300 g/ha ([2]; Panicum miliaceum, pre-emergence application, 300 g/ha, read-out: Percent inhibition, weed PANMI): 100%; inhibition at 900 g/ha ([2]; Panicum miliaceum, pre-emergence application, 900 g/ha, read-out: Percent inhibition, weed PANMI): 90%; inhibition at 10 g/ha ([8]; 10 g/ha): 0%
CCSC(F)(F)S(=O)(=O)c1ncn(C(=O)N(CC)CC)n1 [Example 8, 1-(N,N-diethylcarbamoyl)-3-[difluoro(ethylthio)methylsulfonyl]-1,2,4-triazole]	300 g/ha	300 g/ha	100 g/ha	100 g/ha	[empty]		* (activity observed, at least at highest rate, but <80% inhibition)	300 g/ha		300 g/ha	100 g/ha	100 g/ha	100 g/ha	90%	100%	0%	0%	10%	60%	inhibition at 30 g/ha ([8]; 30 g/ha): 0%; inhibition at 100 g/ha ([8]; 100 g/ha): 70%
CCN(CC)C(=O)n1cnc(S(=O)(=O)C(F)(F)C(=O)c2ccccc2)n1 [Example 6]				300 g/ha	300 g/ha	300 g/ha		300 g/ha	300 g/ha	* (activity observed, at least at highest rate, but <80% inhibition)	300 g/ha	100 g/ha	300 g/ha							
C=C(CC(F)(F)S(=O)(=O)c1ncn(C(=O)N(CC)CC)n1)C[Si](C)(C)C [Example 20]	300 g/ha		* (activity observed, at least at highest rate, but <80% inhibition)	100 g/ha	[empty]					* (activity observed, at least at highest rate, but <80% inhibition)	100 g/ha	100 g/ha	[empty]							Percent inhibition KCHSC (KCHSC (kochia) [7]; 10 g/ha): 50%; Percent inhibition KCHSC (KCHSC (kochia) [7]; 30 g/ha): 50%; Percent inhibition KCHSC (KCHSC (kochia) [7]; 100 g/ha): 100%; Percent inhibition KCHSC (KCHSC (kochia) [7]; 300 g/ha): 100%; Percent inhibition KCHSC (KCHSC (kochia) [7]; 900 g/ha): 100%; Percent inhibition HORVX (barley (HORVX); 10 g/ha): 0%; Percent inhibition HORVX (barley (HORVX); 30 g/ha): 0%; Percent inhibition HORVX (barley (HORVX); 100 g/ha): 0%; Percent inhibition HORVX (barley (HORVX); 300 g/ha): 10%; Percent inhibition HORVX (barley (HORVX); 900 g/ha): 30%
